Measured values published in patent publication EP0752872B1, “NADH OXIDASE AS A TARGET IN DIAGNOSIS AND THERAPY” (Morré, D. James, priority 1994, dated 1995).
Values belong to the molecule of their own block, whether it stands above or below them.

Tests used:
[1] = tested on: plasma membrane NADH oxidase; experiment: Spectrophotometric NADH oxidase assay, rat liver plasma membranes (normal cells); type: biochemical; settings: for response of the NADH oxidase activity (in words): in the presence of Mg^2+
Protocol: Purification of plasma membranes from rat liver. A 5000 x g pellet from the preparation of Golgi apparatus (Morré (1971) Meth. Enzymol. 22, 130-148) was the starting material. The fluffy layer which contains the Golgi apparatus fraction was mixed, withdrawn and excluded from the plasma membrane preparations. Cold 1 mM NaHCO3 (5 ml) was added to each tube and the friable yellow-brown upper part of the pellet was resuspended with a pen-brush, leaving the reddish tightly packed bottom part of the pellet undisturbed. The resuspended material was homogenized in aliquots of 5 ml each in a 30 ml stainless steel homogenizer (Duragrind) 20 times by hand. The homogenates were combined, diluted with cold 1 mM NaHCO3 (1:1 dilution), and centrifuged at 6000 x g in a HB rotor for 15 min. The supernatant was discarded and the pellet was used for the two-phase separation (Morré & Morré (1989) BioTechniques 7:946-958).
The two-phase system contained 6.4% (w/w) Dextran T-500 (Pharmacia), 6.4% (w/w) polyethylene glycol) 3350 (Fisher), and 5 mM potassium phosphate buffer (pH 7.2) (Morré & Morré, 1989, supra). The homogenate (1 g) was added to the two-phase system and the weight of the system was brought to 8 g with distilled water. The tubes were inverted vigorously for 40 times in the cold (4°C). The phases were separated by centrifugation at 750 rpm (150 x g) in a Sorvall HB 4 rotor for 5 min. The upper phases were carefully withdrawn with a pasteur pipette, divided in half and transferred into 40 ml plastic centrifuge tubes and diluted with cold 1 mM NaHCO3. The purified plasma membranes were collected by centrifugation at 10,000 x g in a HB rotor for 30 min. Plasma membrane pellets were resuspended in 50 mM Tris-Mes buffer (pH 7.2) and stored at -70°C. Proteins were determined using the bicinchoninic acid (BCA) assay (Smith et al. (1985) Anal. Biochem. […]: 76-85) with bovine serum albumin as standard.
(§1) Spectrophometric assay of NADH oxidase. NADH oxidase activity was determined as the disappearance of NADH measured at 340 nm in a reaction mixture containing 25 mM Tris-MES buffer (pH 7.2), 1 mM KCN to inhibit the low levels of contaminating mitochondrial oxidase activity, and 150 µM NADH at 37°C with constant stirring. Activity was measured using a Hitachi U3210 spectrophotometer with continuous recording over two intervals of 5 min each. A millimolar extinction coefficient of 6.22 was used to determine specific activity.

[2] = tested on: protein disulfide-thiol interchange of HeLa plasma membranes; experiment: Protein disulfide-thiol interchange (restoration of scrambled RNAse activity, yeast RNA hydrolysis method); type: biochemical, human; settings: for protein disulfide-thiol interchange, I: column I; for protein disulfide-thiol interchange, II: column II; for protein disulfide-thiol interchange, III: column III
Protocol: Estimation of protein disulfide isomerase- (PDI) like activity. Two methods were employed to determine PDI or PDI-like activity. […] For the assay, 100 µl was transferred to each of 4 tubes. Yeast RNA (100 µl, 0.33 mg/ml, pH 5.0) was added. After 0 min and 10 min, the reaction was stopped by the addition of 100 µl of 25% percholoric acid containing 0.75% uranyl acetate. The tubes were cooled in an ice bath for 5 min and clarified by centrifugation (2 min, microfuge). The 75 µl of the clear supernatant was diluted to 3.0 ml with water. The absorbance was measured at […] against an unincubated blank. […] To prepare the oxidized, denatured RNAse substrate (scrambled RNAse), native RNAse A (Sigma, Type 1-AS from bovine pancreas) (30 µg/ml) was incubated 1 h at 35°C in 50 mM Tris-acetate, pH 8.6, containing 9 M urea and 130 mM DTT. […] Protein concentration was estimated from spectrophotometric measurement at 280 nm using native RNAse A as standard. For preparation of scrambled RNAse, the reduced RNAse was diluted to 0.5 mg/ml with 0.1 M acetic acid. […] The scrambled product was recovered by acidification to pH 4 with glacial acetic acid and elution from Sephadex G-25 in 0.1 M acetic acid. Fractions containing protein were pooled, adjusted to pH 8 and stored at 4°C.

[3] = tested on: Protein disulfide-thiol interchange activity of HeLa plasma membrane; experiment: Protein disulfide-thiol interchange (RNAse activity with cCMP as substrate); type: biochemical, human; settings: None 1.6
Protocol: Estimation of protein disulfide isomerase- (PDI) like activity. Two methods were employed to determine PDI or PDI-like activity.
(§2) In the first method, ribonuclease A activity was measured using a spectrophotometric assay based on cCMP as RNAse substrate. Scrambled RNAse (90.363 mg) was incubated together with 0.45 mM cCMP in 50 Mm Tris-MES buffer, pH 6.5, at 30°C in a final volume of 3 ml. […] A variation of this assay was to preincubate scrambled RNAse with transitional endoplasmic reticulum for 20 min in the presence or absence of 1 µM all-trans retinol (using ethanol as control) and in the presence or absence of 1 µM reduced or oxidized glutathione or a mixture of both. After this 20 min of "reactivation" of RNAse, cCMP was added to a final concentration of 0.45 mM to initiate the reaction. The increase of the absorbance at 296 nm was recorded over 25 min and the concentrations of cCMP were determined (E = 0.19 mM^-1cm^-1). Spectrophotometric measurements were with a Hitachi U3210 spectrophotometer with a thermostatic cell compartment maintained at 30°C with continuous stirring.
Preparation of scrambled RNAse substrate. To prepare the oxidized, denatured RNAse substrate (scrambled RNAse), native RNAse A (Sigma, Type 1-AS from bovine pancreas) (30 µg/ml) was incubated 1 h at 35°C in 50 mM Tris-acetate, pH 8.6, containing 9 M urea and 130 mM DTT.
Protein concentration was estimated from spectrophotometric measurement at 280 nm using native RNAse A as standard. For preparation of scrambled RNAse, the reduced RNAse was diluted to 0.5 mg/ml with 0.1 M acetic acid. Solid urea was then added to a final concentration of 10 M after which 0.1 M sarcosine hydrochloride was added and the pH adjusted to 8.5 with 1 M Tris. The mixture then was incubated in the dark for 2-3 days during which time the protein was randomly oxidized. The scrambled product was recovered by acidification to pH 4 with glacial acetic acid and elution from Sephadex G-25 in 0.1 M acetic acid. Fractions containing protein were pooled, adjusted to pH 8 and stored at 4°C.

[4] = tested on: circulating NADH oxidase in the serum; experiment: NADH oxidase activity of human serum; type: biochemical; settings: normal human serum
Protocol: as §1

native RNAse = molecular target: T1, native RNAse (Bos taurus, UniProt P61823); experiment: Activity of native RNAse; type: biochemical, bovine; settings: sulfonylurea 1 µM; for activity of native RNAse, pH 6.0: None 0.15; for activity of native RNAse, pH 6.8: None 0.21
T1 construct: native RNAse A (Sigma, Type 1-AS from bovine pancreas); purchased Sigma Type 1-AS; host or cells: bovine pancreas
T1 sequence (P61823 27-150): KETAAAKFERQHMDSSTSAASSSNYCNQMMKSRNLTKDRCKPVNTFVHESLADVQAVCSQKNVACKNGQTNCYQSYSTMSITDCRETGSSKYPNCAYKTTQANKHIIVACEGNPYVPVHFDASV
Protocol: as §2, with “substrate.” for “substrate. Scrambled RNAse (90.363 mg) was incubated together with 0.45 mM cCMP in 50 Mm Tris-MES buffer, pH 6.5, at 30°C in a final volume of 3 ml.”, “[…] […]” for “A variation of this assay was to preincubate scrambled RNAse with transitional endoplasmic”

[5] = tested on: NADH oxidase activity of culture medium with HeLa cells; experiment: NADH oxidase activity of culture medium with HeLa cells; type: biochemical, human
Protocol: As is characteristic of many ectoproteins of the mammalian cell surface, an NADH oxidase activity is present in the serum and in HeLa cell culture filtrate. The NADH oxidase activity of culture medium with HeLa cells is proportional to time of incubation and to the amount of medium added. […] The activity is inhibited by 85°C for 20 min, trypsin, N-ethyl maleimide and PCMB, and guanosine nucleotides. These activities have properties similar to those of the plasma membrane-bound form. The circulating form appears to have a lower molecular weight (ca. 32 kD) than the membrane-bound form. The circulating NADH oxidase in the serum of cancer patients is inhibited by adriamycin whereas the circulating NADH oxidase in the serum of healthy individuals is not. Further details from this observation are found in the examples.

HeLa cells = experiment: Growth of HeLa cells in culture; type: cell-based, human
Protocol: Growth of cells. HeLa cells (ATCC CCL2), were grown in 150 cm^2 flasks in Minimal Essential Medium (Gibco), pH 7.4. at 37°C with 10% bovine calf serum (heat-inactivated), plus 50 mg/l gentamycin sulfate (Sigma). Cells were trypsinized with Sigma IX trypsin for 1 to 2 min, harvested by scraping and taken up in TD-tris buffer (140 mM NaCl, 5 mM KCl, 0.7 mM Na2HPO4 and 25 mM Tris, pH 7.4) to a final cell concentration of 0.1 g wet weight (gww) per ml.
The number of cells initially plated was subtracted. The results were averages from duplicate experiments.

[6] = substance alone, thiol addition 1 µM, none 0.11
[7] = substance alone, thiol addition 1 µM, none 0.047
[8] = biphasic response, read-out: Km at low NADH concentrations

Molecule: CC1=CC(=O)[C@@H](O)[C@]2(C)[C@H]3[C@@]4(O)OC[C@]35[C@H]([C@@H](C)[C@H]4O)[C@@H](O)C(=O)O[C@@H]5C[C@@H]12 [(-)-glaucarubolone]
IC50 ([1]; liver plasma membranes, Figure 3, read-out: final concentration at which the activity was 50% inhibited): ~1 nM

Molecule: Nc1nc2c(ncn2[C@@H]2O[C@H](COP(=O)(O)OP(=O)(O)O)[C@@H](O)[C@H]2O)c(=O)[nH]1 [GDP]
response of the NADH oxidase activity (in words) [1]: inhibited

protein disulfide-thiol interchange, I [2, 6]: 0.06 0.D./10 min | protein disulfide-thiol interchange, II [2, 7]: 0.06 0.D./10 min | protein disulfide-thiol interchange, III ([2]; substance alone, thiol addition 1 µM, none 0.021): 0.041 0.D./10 min | Protein disulfide-thiol interchange activity ([3]; thiol treatment, concentration not given): 2.1 nmoles/min/mg protein
Molecule: N[C@@H](CCC(=O)N[C@@H](CS)C(=O)NCC(=O)O)C(=O)O [GSH, reduced glutathione]

Molecule: Nc1nc2c(ncn2[C@@H]2O[C@H](COP(=O)(O)OP(=O)(O)OP(O)(O)=S)[C@@H](O)[C@H]2O)c(=O)[nH]1 [GTP [γ-S]]
response of the NADH oxidase activity (in words) [1]: inhibited

inhibition of NADH oxidase activity (in words) [4]: inhibited
Molecule: Nc1nc2c(ncn2[C@@H]2O[C@H](COP(=O)(O)OP(=O)(O)OP(=O)(O)O)[C@@H](O)[C@H]2O)c(=O)[nH]1 [GTP]

activity of native RNAse, pH 6.0 (native RNAse): 0.14 µmol/mg/min | activity of native RNAse, pH 6.8 (native RNAse): 0.21 µmol/mg/min | protein disulfide-thiol interchange, I [2, 6]: 0.076 0.D./10 min | protein disulfide-thiol interchange, I ([2]; sulfonylurea with GSH 1 µM): 0.056 0.D./10 min | protein disulfide-thiol interchange, I ([2]; sulfonylurea with GSSG 1 µM): 0.044 0.D./10 min | protein disulfide-thiol interchange, II [2, 7]: 0.049 0.D./10 min | protein disulfide-thiol interchange, II ([2]; sulfonylurea with GSH 1 µM): 0.03 0.D./10 min | protein disulfide-thiol interchange, II ([2]; sulfonylurea with GSSG 1 µM): 0.04 0.D./10 min | protein disulfide-thiol interchange, III ([2]; sulfonylurea with GSH 1 µM): 0.018 0.D./10 min | protein disulfide-thiol interchange, III ([2]; sulfonylurea with GSSG 1 µM): 0.016 0.D./10 min | inhibition of protein disulfide isomerase-like activity (in words) ([2]; plasma membrane vesicles isolated from HeLa cells): inhibited the activity | Protein disulfide-thiol interchange activity ([3]; treatment at 1 µM): 1.0 nmoles/min/mg protein
Molecule: Cc1ccc(S(=O)(=O)NC(=O)Nc2ccc(Cl)cc2)cc1 [LY181984, N-(4-methylphenylsulfonyl)-N'-(4-chlorophenyl) urea]

activity of native RNAse, pH 6.0 (native RNAse): 0.15 µmol/mg/min | activity of native RNAse, pH 6.8 (native RNAse): 0.21 µmol/mg/min
Molecule: Cc1ccc(S(=O)(=O)NC(=O)Nc2ccccc2)cc1 [LY181985, N-(4-methylphenylsulfonyl)-N'-(phenyl)urea]

Molecule: CCN1C(=O)C=CC1=O [N-ethyl maleimide]
inhibition of NADH oxidase activity (in words) [4]: inhibited | inhibition of NADH oxidase activity (in words) [5]: inhibited

Molecule: NC(=O)C1=CN([C@@H]2O[C@H](COP(=O)(O)OP(=O)(O)OC[C@H]3O[C@@H](n4cnc5c(N)ncnc54)[C@H](O)[C@@H]3O)[C@@H](O)[C@H]2O)C=CC1 [NADH, reduced pyridine nucleotide]
Km [4, 8]: 25 µM | Km [5, 8]: 15 µM

Molecule: O=C(O)c1cc[c]([Hg][Cl])cc1 [PCMB, p-chloromercuribenzoate]
inhibition of NADH oxidase activity (in words) [4]: inhibited | inhibition of NADH oxidase activity (in words) [5]: inhibited

Molecule: Nc1ccc(Cl)cc1 [free chloroaniline, chloroaniline]
inhibition of growth of HeLa cells (in words) (HeLa cells): inactive

Molecule: aluminum fluoride
response of the hormone- and growth-stimulated NADH oxidase (in words) [1]: weakly inhibitory

Molecule: mastoparan
response of the hormone- and growth-stimulated NADH oxidase (in words) [1]: activated
